Laboratory results from PMC8039949, “A novel small-molecule PROTAC selectively promotes tau clearance to improve cognitive functions in Alzheimer-like models” (Theranostics, 2021).
Peptide text beside a SMILES is read from it. * marks the point of attachment. Cbz = O=C(OCc1ccccc1)*

Target: T1, human tau (hTau) (Homo sapiens, UniProt P10636)
T1 construct: expressed in transfected cells
Assay: Tau clearance in HEK293-hTau cells by Western blotting
Type: cell-based
Conditions: HEK293-hTau cells; 10 μM MG132 with 20 μM C004019; 24 h
Procedure: SH-SY5Y human neuroblastoma cells were cultured in 90% DME/F-12 medium (HyClone, SH30023.01) with 10% fetal bovine serum (FBS) (Biological Industries, 04-001-1ACS) and penicillin (100 U/mL)/ streptomycin (100 μg/mL) in a 37 °C incubator with humidified atmosphere of 5% CO2. Human embryonic kidney 293 cells (HEK293) or HEK293 with stable expression of wild-type full-length human tau (termed as HEK293-hTau) were cultured in 90% DMEM/High Glucose medium (HyClone, SH30022.01) containing 10% FBS and 200 μg/mL G418 (ThermoFisher Scientific, 10131027), in a humidified atmosphere of 5% CO2 at 37 °C. Neofect (DNA transfection reagent, TF20121201) was used for plasmids transfection. The cells were placed onto 6-well or 12-well plates. Plasmids (EGFP-hTau or 3xFlag-hTau or the vector), neofect and Opti-MEM medium (Gibco, 31985-070) were made into a mixture in a ratio of 1 μg: 1 μL : 100 μL and then added into each well of the plate. To inhibit proteasome activity, HEK293-hTau cells were cultured with DMEM/High medium containing 20 μM C004019 with or without 10 μM MG132, or the same volume of vehicle (DMSO) for 24 h at 37 °C. To induce tau hyperphosphorylation, SH-SY5Y cells were cultured with DME/F-12 medium containing 10 μM C004019 with or without 1 μM GFX and 1 μM WO for 24 h at 37 °C.
The cells or hippocampal/cortex tissues were homogenized for ~ 30 min on ice in buffer [50 mM Tris·HCl pH 7.4-7.5, 100 mM NaCl, 1% (vol/vol) Triton X-100, 5 mM EDTA, 1:100 PMSF, 1:1,000 protease inhibitor cocktail containing 4-(2-Aminoethyl)-benzenesulfonyl fluoride hydrochloride, aprotinin, bestatin, leupeptin, E-64, and pepstatin A stored at 4 °C], and then centrifuged at 12,000 × g at 4 °C for 20 min. The supernatant was collected and the protein levels were analyzed using bicinchoninic acid (BCA, KF016, Sigma-Aldrich) by following the manufacturer's instruction (served as soluble protein). The pellet was further incubated with 8% (wt/vol) SDS buffer at 4 °C and then treated by ultrasonic wave to reach a complete resuspension. […] Immunoreactive bands were quantitatively analyzed by Image J2x software.

T1 sequence (P10636 1-441 isoform P10636-8): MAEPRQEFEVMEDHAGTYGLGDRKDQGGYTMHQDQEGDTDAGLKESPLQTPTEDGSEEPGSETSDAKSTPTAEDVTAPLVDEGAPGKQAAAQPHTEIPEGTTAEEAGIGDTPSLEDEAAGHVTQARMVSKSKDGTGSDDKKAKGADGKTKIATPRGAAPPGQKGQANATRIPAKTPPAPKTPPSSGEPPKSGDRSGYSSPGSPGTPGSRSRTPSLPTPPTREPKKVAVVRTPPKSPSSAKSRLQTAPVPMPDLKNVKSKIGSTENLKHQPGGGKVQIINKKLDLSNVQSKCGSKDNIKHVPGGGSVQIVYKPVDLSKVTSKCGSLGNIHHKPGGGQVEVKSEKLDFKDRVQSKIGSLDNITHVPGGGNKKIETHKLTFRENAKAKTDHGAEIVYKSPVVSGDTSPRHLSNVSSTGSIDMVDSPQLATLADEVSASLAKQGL

Compound: CC(C)C[C@@H](C=O)NC(=O)[C@H](CC(C)C)NC(=O)[C@H](CC(C)C)NC(=O)OCc1ccccc1 [MG132, reference compound] (Cbz-Leu-Leu-Leu-aldehyde)
- effect on C004019-induced clearance of tau (proteasome inhibition): abolished
